Values quoted from earlier work in patent US4430326A (University Patents, Inc., priority 1981, dated 1984).

Tests used:
[1] = test system: glycogenolytic stimulation; conditions: Cote, et al.
adenylate cyclase system = conditions: literature reports

Row | reported action on adenylate cyclase activity (agonist / antagonist) (adenylate cyclase system) | Substance | reported action toward glycogenolytic stimulation [1]
1 | – | N^α -trinitrophenyl glucagon | partial agonist
2 | full agonist | [12-homoargine]glucagon | –
3 | agonists | N^α,N^ε -di(trinitrophenyl)-glucagon | –
